From ChEMBL document CHEMBL1697692, “Developing structure-activity relationships for the prediction of hepatotoxicity” (Chem Res Toxicol, 2010) come the findings set out here.

This data set concerns Hepatotoxicity. The data set is described as follows: Literature-mined public compounds from Greene et al multi-species hepatotoxicity modelling dataset.

With `CN1Cc2c(N)cccc2C(c2ccccc2)C1` (configuration not stated) [NOMIFENSINE], the Hepatotoxicity result is reported as “HH: Evidence of human hepatotoxicity”.
With `CC[C@H]1OC(=O)[C@H](C)[C@@H](O[C@H]2C[C@@](C)(OC)[C@@H](O)[C@H](C)O2)[C@H](C)[C@@H](O[C@@H]2O[C@H](C)C[C@H](N(C)C)[C@H]2O)[C@](C)(O)C[C@@H](C)C(=O)[C@H](C)[C@@H](O)[C@]1(C)O` [ERYTHROMYCIN] the entry was “WE: Weak evidence (<10 case reports) of human hepatotoxicity”; with `CN1CCN(C2=Nc3cc(Cl)ccc3Nc3ccccc32)CC1` [CLOZAPINE], “HH: Evidence of human hepatotoxicity”; with `Nc1nc2ncc(CNc3ccc(C(=O)N[C@@H](CCC(=O)O)C(=O)O)cc3)nc2c(=O)[nH]1` [FOLIC ACID], “NE: No evidence of hepatotoxicity in any species”.
With `C[C@H](CCC(=O)O)[C@H]1CC[C@H]2[C@@H]3[C@H](O)C[C@@H]4C[C@H](O)CC[C@]4(C)[C@H]3CC[C@]12C` [CHENODIOL] the entry was “HH: Evidence of human hepatotoxicity”; with `CC[C@H]1OC(=O)[C@H](C)[C@@H](O[C@H]2C[C@@](C)(OC)[C@@H](O)[C@H](C)O2)[C@H](C)[C@@H](O[C@@H]2O[C@H](C)C[C@H](N(C)C)[C@H]2O)[C@](C)(O)C[C@@H](C)CN(C)[C@H](C)[C@@H](O)[C@]1(C)O` [AZITHROMYCIN], “WE: Weak evidence (<10 case reports) of human hepatotoxicity”; with `CC(C(=O)[O-])c1cccc(Oc2ccccc2)c1.[Na+]` (configuration not stated) [FENOPROFEN SODIUM], “HH: Evidence of human hepatotoxicity”.
On to `C=C1c2cccc(O)c2C(=O)C2=C(O)[C@]3(O)C(=O)C(C(N)=O)=C(O)[C@@H](N(C)C)[C@@H]3[C@@H](O)[C@H]12.Cl` [METHACYCLINE HYDROCHLORIDE], for which the Hepatotoxicity entry is listed as “HH: Evidence of human hepatotoxicity”.
With `Cl.Nc1cc(Cl)cc(Cl)c1`, the Hepatotoxicity entry is given as “NE: No evidence of hepatotoxicity in any species”.
With `O=C(O)P(=O)(O)O` [FOSCARNET] the entry was “NE: No evidence of hepatotoxicity in any species”; with `CN[C@@H]1[C@H](O[C@H]2[C@H](O[C@H]3[C@H](O)[C@@H](O)[C@H](N=C(N)N)[C@@H](O)[C@@H]3N=C(N)N)O[C@@H](C)[C@]2(O)C=O)O[C@@H](CO)[C@H](O)[C@H]1O.CN[C@@H]1[C@H](O[C@H]2[C@H](O[C@H]3[C@H](O)[C@@H](O)[C@H](N=C(N)N)[C@@H](O)[C@@H]3N=C(N)N)O[C@@H](C)[C@]2(O)C=O)O[C@@H](CO)[C@H](O)[C@H]1O.O=S(=O)(O)O.O=S(=O)(O)O.O=S(=O)(O)O` [STREPTOMYCIN SULFATE], “NE: No evidence of hepatotoxicity in any species”; with `CO[C@H]1/C=C/O[C@@]2(C)Oc3c(C)c(O)c4c(c3C2=O)C2=NC3(CCN(CC(C)C)CC3)NC2=C(NC(=O)/C(C)=C\C=C\[C@H](C)[C@H](O)[C@@H](C)[C@@H](O)[C@@H](C)[C@H](OC(C)=O)[C@@H]1C)C4=O` [RIFABUTIN], “HH: Evidence of human hepatotoxicity”.
With `CN1CCC[C@@H]1CCO[C@](C)(c1ccccc1)c1ccc(Cl)cc1.O=C(O)/C=C/C(=O)O` [CLEMASTINE FUMARATE] the entry was “NE: No evidence of hepatotoxicity in any species”; with `CC[N+](C)(C)c1cccc(O)c1.[Cl-]` [EDROPHONIUM CHLORIDE], “NE: No evidence of hepatotoxicity in any species”.
With `COc1cc(NC(C)CCCN)c2ncccc2c1.O=P(O)(O)O.O=P(O)(O)O` (configuration not stated) [PRIMAQUINE PHOSPHATE] the entry was “WE: Weak evidence (<10 case reports) of human hepatotoxicity”; with `COc1cccc2c1C(=O)c1c(O)c3c(c(O)c1C2=O)C[C@@](O)(C(=O)CO)C[C@@H]3O[C@H]1C[C@H](N)[C@@H](O)[C@H](C)O1` [EPIRUBICIN], “NE: No evidence of hepatotoxicity in any species”.
Regarding `CN1CCN(CCCN2c3ccccc3Sc3ccc(Cl)cc32)CC1.O=C(O)/C=C\C(=O)O.O=C(O)/C=C\C(=O)O` [PROCHLORPERAZINE MALEATE], the Hepatotoxicity result is given as “HH: Evidence of human hepatotoxicity”.
With `Cl.N[C@@H]1C[C@H]1c1ccccc1` [TRANYLCYPROMINE HYDROCHLORIDE] the entry was “NE: No evidence of hepatotoxicity in any species”; with `COc1cc(Cc2cnc(N)nc2N)cc(OC)c1OC` [TRIMETHOPRIM], “HH: Evidence of human hepatotoxicity”; with `C=C[C@H]1C[N@@]2CC[C@H]1C[C@@H]2[C@@H](O)c1ccnc2ccc(OC)cc12` [QUINIDINE], “HH: Evidence of human hepatotoxicity”.
With `Nc1ccc(C(=O)O)c(O)c1` [AMINOSALICYLIC ACID] the entry was “HH: Evidence of human hepatotoxicity”.
With `O=C(O)c1cc(/N=N/c2ccc(S(=O)(=O)Nc3ccccn3)cc2)ccc1O` [SULFASALAZINE] the entry was “HH: Evidence of human hepatotoxicity”; with `Nc1nc(=O)[nH]cc1F` [FLUCYTOSINE], “HH: Evidence of human hepatotoxicity”; with `Nc1ccn([C@H]2CC[C@@H](CO)O2)c(=O)n1` [ZALCITABINE], “NE: No evidence of hepatotoxicity in any species”.
Regarding `C[C@H](N)Cc1ccccc1.C[C@H](N)Cc1ccccc1.O=S(=O)(O)O` [DEXTROAMPHETAMINE SULFATE], the Hepatotoxicity entry is “HH: Evidence of human hepatotoxicity”.
With `CN(N=O)C(=O)N[C@@H](C=O)[C@@H](O)[C@H](O)[C@H](O)CO` [STREPTOZOCIN] the entry was “NE: No evidence of hepatotoxicity in any species”; with `CC(C(=O)O)c1ccc(-c2ccccc2)c(F)c1` (configuration not stated) [FLURBIPROFEN], “HH: Evidence of human hepatotoxicity”.
As to `Cc1ncc([N+](=O)[O-])n1CCO` [METRONIDAZOLE], the Hepatotoxicity result was “HH: Evidence of human hepatotoxicity”.
With `Cn1nnnc1SCC1=C(C(=O)[O-])N2C(=O)[C@@H](NC(=O)[C@H](O)c3ccccc3)[C@H]2SC1.[Na+]` [CEFAMANDOLE SODIUM] the entry was “HH: Evidence of human hepatotoxicity”.
With `C[C@@H]1[C@H](O)[C@@H](C)/C=C/C=C/C=C/C=C/C=C/C=C/C=C/[C@H](O[C@@H]2O[C@H](C)[C@@H](O)[C@H](N)[C@@H]2O)C[C@@H]2O[C@](O)(C[C@@H](O)C[C@@H](O)[C@H](O)CC[C@@H](O)C[C@@H](O)CC(=O)O[C@H]1C)C[C@H](O)[C@H]2C(=O)O` [AMPHOTERICIN B] the entry was “WE: Weak evidence (<10 case reports) of human hepatotoxicity”; with `Cc1cc(NC(=O)C2=C(O)c3ccccc3S(=O)(=O)N2C)no1` [ISOXICAM], “NE: No evidence of hepatotoxicity in any species”.
With `CC(CN1c2ccccc2Sc2ccccc21)N(C)C.Cl` (configuration not stated) [PROMETHAZINE HYDROCHLORIDE] the entry was “NE: No evidence of hepatotoxicity in any species”; with `COc1cc(C(=O)NCc2ccc(OCCN(C)C)cc2)cc(OC)c1OC.Cl` [TRIMETHOBENZAMIDE HYDROCHLORIDE], “HH: Evidence of human hepatotoxicity”.
Regarding `CCCOc1ccc2nc(NC(=O)OC)[nH]c2c1` [OXIBENDAZOLE], the Hepatotoxicity entry is recorded as “AH: Evidence for animal hepatotoxicity but not tested in humans”.
With `CCCCN1CCCCC1C(=O)Nc1c(C)cccc1C` (configuration not stated) [BUPIVACAINE] the entry was “NE: No evidence of hepatotoxicity in any species”; with `CC(c1cc2ccccc2s1)N(O)C(N)=O` (configuration not stated) [ZILEUTON], “HH: Evidence of human hepatotoxicity”.
For the compound `C=C1CC[C@H](O)C/C1=C/C=C1\CCC[C@]2(C)[C@@H]([C@H](C)CCCC(C)(C)O)CC[C@@H]12.O` [CALCIFEDIOL], the Hepatotoxicity entry was “HH: Evidence of human hepatotoxicity”.
`CN[C@@H](C)[C@@H](O)c1ccccc1.Cl` [PSEUDOEPHEDRINE HYDROCHLORIDE]: the Hepatotoxicity entry is “NE: No evidence of hepatotoxicity in any species”.
With `N[C@@H](C(=O)N[C@@H]1C(=O)N2C(C(=O)O)=C(Cl)CC[C@H]12)c1ccccc1` [LORACARBEF ANHYDROUS] the entry was “NE: No evidence of hepatotoxicity in any species”.
With `CN(C)N=O` [N-NITROSODIMETHYLAMINE] the entry was “AH: Evidence for animal hepatotoxicity but not tested in humans”.
With `CC(C)NCC(O)c1ccc(O)c(O)c1.Cl` (configuration not stated) [ISOPROTERENOL HYDROCHLORIDE] the entry was “NE: No evidence of hepatotoxicity in any species”; with `Cc1ccc(S(=O)(=O)NC(=O)NN2CC3CCCC3C2)cc1` (configuration not stated) [GLICLAZIDE], “WE: Weak evidence (<10 case reports) of human hepatotoxicity”; with `CO[C@H]1/C=C/O[C@@]2(C)Oc3c(C)c(O)c4c(O)c(c(/C=N/N5CCN(C)CC5)c(O)c4c3C2=O)NC(=O)/C(C)=C\C=C\[C@H](C)[C@H](O)[C@@H](C)[C@@H](O)[C@@H](C)[C@H](OC(C)=O)[C@@H]1C` [RIFAMPIN], “WE: Weak evidence (<10 case reports) of human hepatotoxicity”.
For `CNS(=O)(=O)Cc1ccc2[nH]cc(CCN(C)C)c2c1`, the Hepatotoxicity result was “NE: No evidence of hepatotoxicity in any species”.
With `O=C1CN(/N=C/c2ccc([N+](=O)[O-])o2)C(=O)N1` [NITROFURANTOIN] the entry was “HH: Evidence of human hepatotoxicity”; with `CCOC(=O)C(C)(C)Oc1ccc(Cl)cc1` [CLOFIBRATE], “HH: Evidence of human hepatotoxicity”; with `NC(CS/C(Cl)=C/Cl)C(=O)O` (configuration not stated), “AH: Evidence for animal hepatotoxicity but not tested in humans”.
With `Cc1cccc(Nc2cc(Cl)nc(SCC(=O)O)n2)c1C` [PIRINIXIC ACID] the entry was “AH: Evidence for animal hepatotoxicity but not tested in humans”.
As for `NCCc1ccc(O)c(O)c1` [DOPAMINE], the Hepatotoxicity result is listed as “NE: No evidence of hepatotoxicity in any species”.
With `C[C@H](CCc1ccccc1)NC[C@H](O)c1ccc(O)c(C(N)=O)c1` [DILEVALOL] the entry was “HH: Evidence of human hepatotoxicity”; with `Cl[C@H]1[C@H](Cl)[C@@H](Cl)[C@@H](Cl)[C@H](Cl)[C@H]1Cl` (stereo in doubt; form 1) [LINDANE], “NE: No evidence of hepatotoxicity in any species”.
With `O=C1CN(/N=C/c2ccc(-c3ccc([N+](=O)[O-])cc3)o2)C(=O)[N-]1.[Na+]` [DANTROLENE SODIUM] the entry was “HH: Evidence of human hepatotoxicity”.
